Assay results from patent publication US9910031B2, “Compositions and methods for modulating c-Rel-dependent cytokine production” (Synta Pharmaceuticals Corporation, priority 2003, dated 2018).
Blank lines part the entries; values can stand above or below the molecule they belong to.

What was measured:
[1] = tested on: IL-12 production in THP-1 cells; experiment: Inhibition of IL-12 production in THP-1 cells (ELISA); assay type: cell-based; conditions: Homo sapiens, read-out: IC50 against IL-12 production
Excerpt: The foregoing and other useful combination therapies will be understood and appreciated by those of skill in the art. Potential advantages of such combination therapies include the ability to use less of each of the individual active ingredients to minimize toxic side effects, synergistic improvements in efficacy, improved ease of administration or use and/or reduced overall expense of compound preparation or formulation. The biological activities of a compound of this invention can be evaluated by a number of cell-based assays. One of such assays can be conducted using cells from human peripheral blood mononuclear cells (PBMC) or human monocytic cell line (THP-1). The cells are stimulated with a combination of human interferon-γ (IFN-γ) and lipopolysaccharide or a combination of IFN-γ and Staphylococcus aureus Cowan I in the presence of a test compound. The level of inhibition of IL-12 production can be measured by, e.g., determining the amount of p70 by using a sandwich ELBA assay with anti-human IL-12 antibodies. IC50 of the test compound can then be determined. Specifically, PBMC or THP-1 cells are incubated with the test compound. Cell viability was assessed using the bioreduction of MTS [3-(4,5-dimethylthiazol-2-yl)-5-(3-carboxymethoxyphenyl)-2-(4-sulfophenyl)-2H-tetrazolium] (Promega, Madison, Wis.). […]

human IL-12 p35 promoter = experiment: IL-12 p35 promoter/luciferase reporter in transiently transfected RAW264.7 cells; assay type: cell-based, murine; conditions: for p35 promoter-driven luciferase expression: RAW264.7, IFN-γ/LPS or IFN-γ/SAC
Procedure: (§1) As a result of the Northern blot findings, we undertook a study of the p35 and p40 promoter activities. We transiently transfected the murine macrophage cell line RAW264.7 with DNA constructs in which the p35 and p40 promoters directed expression of the luciferase reporter gene. The RAW264.7 cell line was obtained from American Type Culture Collection (Manassas, Va.) and was cultured in DMEM (ATCC, Manassas, Va.) supplemented with 10% FCS (ATCC, Manassas, Va.), and 1% penicillin/Streptomycin (Gibco-BRL, New York, N.Y.).
Both p35 and p40 promoter-driven luciferase production in response to stimulation were determined in the presence or absence of Compound 1 and Compound 2. To construct the human IL-12 p35 and p40 promoter/luciferase reporter constructs, we generated p35 (−1.5 kb to +3 bp) and p40 (−1.3 kb to +56 bp) promoter fragments, which contained several sequence motifs of the human IL-12 p35 and p40 genes. The fragments were generated by PCR from genomic DNA obtained from human PBMC using primers as follows: IL-12 p35 1.5 kb-F: 5′-[…]-3′(SEQ ID NO:3) and IL-12 p35 1.5 kb-R: 5′-[…]-3′ (SEQ ID NO:4); IL-12 p40 −1.3 kb-F: 5′-[…]-3′ (SEQ ID NO:5) and IL-12 p40 1.3 kb-R: 5′-[…]-3′ (SEQ ID NO:6). The deletion in the p40 promoter reporter constructs were generated by PCR with primers as follows: IL-12 p40 −250 bp to +56 bp (p40/−250 bp) F: 5′-[…]-3′(SEQ ID NO:7) and IL-12 p40 −250 bp to +56 bp (p401/−250 bp) R: 5′-TGCTCTGGGCAGGACGGAG-3′ (SEQ ID NO:8); IL-12 p40 −150 bp to +56 bp (p40/−150 bp) F: 5′-[…]-3′ (SEQ ID NO:9) and IL-12 p40 −150 bp to +56 bp (p40/−150 bp) R: 5′-TGCTCTGGGCAGGACGGAG-3′(SEQ ID NO:10). […]
Cells were co-transfected with the vector pCMV (BD Biosciences Clontech) in which the constitutively active CMV promoter directs β-galactosidase expression for the monitoring of transfection efficiency. Luciferase and β-galactosidase activity were determined in cell extracts prepared according to the Luciferase assay system (Promega) and Luminescent n-gal Detection system (BD Biosciences Clontech). […]

human IL-12 p40 promoter = experiment: IL-12 p40 promoter/luciferase reporter in transiently transfected RAW264.7 cells; assay type: cell-based, murine; conditions: for p40 promoter-driven luciferase expression: RAW264.7, IFN-γ/LPS or IFN-γ/SAC
Procedure: as §1
Both p35 and p40 promoter-driven luciferase production in response to stimulation were determined in the presence or absence of Compound 1 and Compound 2. To construct the human IL-12 p35 and p40 promoter/luciferase reporter constructs, we generated p35 (−1.5 kb to +3 bp) and p40 (−1.3 kb to +56 bp) promoter fragments, which contained several sequence motifs of the human IL-12 p35 and p40 genes. The fragments were generated by PCR from genomic DNA obtained from human PBMC using primers as follows: IL-12 p35 1.5 kb-F: 5′-[…]-3′(SEQ ID NO:3) and IL-12 p35 1.5 kb-R: 5′-[…]-3′ (SEQ ID NO:4); IL-12 p40 −1.3 kb-F: 5′-[…]-3′ (SEQ ID NO:5) and IL-12 p40 1.3 kb-R: 5′-[…]-3′ (SEQ ID NO:6). The deletion in the p40 promoter reporter constructs were generated by PCR with primers as follows: IL-12 p40 −250 bp to +56 bp (p40/−250 bp) F: 5′-[…]-3′(SEQ ID NO:7) and IL-12 p40 −250 bp to +56 bp (p401/−250 bp) R: 5′-TGCTCTGGGCAGGACGGAG-3′ (SEQ ID NO:8); IL-12 p40 −150 bp to +56 bp (p40/−150 bp) F: 5′-[…]-3′ (SEQ ID NO:9) and IL-12 p40 −150 bp to +56 bp (p40/−150 bp) R: 5′-TGCTCTGGGCAGGACGGAG-3′(SEQ ID NO:10). The resulting PCR products were ligated upstream of the luciferase gene in pGL3-Basic vector (Promega). All constructs were verified by DNA sequencing.
Transfection was accomplished using SuperFect Transfection Reagent (Qiagen) by the described protocol. Total amount of transfect DNA was kept constant by including the respective control plasmids without insertions.
Cells were co-transfected with the vector pCMV (BD Biosciences Clontech) in which the constitutively active CMV promoter directs β-galactosidase expression for the monitoring of transfection efficiency. Luciferase and β-galactosidase activity were determined in cell extracts prepared according to the Luciferase assay system (Promega) and Luminescent n-gal Detection system (BD Biosciences Clontech). Luciferase activity was then normalized using the β-galactosidase value. […] ELISA was performed by the following method. Human IL-12 p70 (heterodimer) was assayed using ELI-PAIR kit from Cell Sciences (Norwood, Mass.), according to the manufacturer's instructions. Human IL-12 p40 was assayed using ELISA kit from Cell Sciences (Norwood, Mass.) according to the manufacturer's instructions.
We then set out to analyze the IL-12 transcriptional promoter elements that played a role in this effect. We performed deletion analyses using the p40 promoter. This promoter, rather than the p35 promoter, was chosen because the transcriptional elements are better defined in the p40 promoter. To identify the IL-12 inhibitor responsive elements involved in the p40 gene transcription activation, three different promoters were constructed and transiently transfected into RAW264.7 cells.
To assess the role of individual p40 promoter transcription elements in more detail, mutations within many of these elements have been generated. […]

- IC50 [1]: 40 nM
SMILES: C(=NNc1nc(OCCc2ccccn2)nc(N2CCOCC2)n1)c1c[nH]c2ccccc12 [Compound 1, N-(1H-indol-3-ylmethylene)-N′-[4-morpholin-4-yl-6-(2-pyridin-2-yl-ethoxy)-[1,3,5]triazin-2-yl]-hydrazine]
- p35 promoter-driven luciferase expression (human IL-12 p35 promoter): suppressed
- p40 promoter-driven luciferase expression (human IL-12 p40 promoter): suppressed
- IL-12 p40 promoter-driven luciferase activity, deletion construct (human IL-12 p40 promoter; RAW264.7, IFN-γ/LPS, promoter containing Ets-2, PU-1, NF-κB and API elements): significantly suppressed

SMILES: Cc1cccc(C=NNc2cc(N3CCOCC3)nc(OCCc3ccccn3)n2)c1 [Compound 2, N-(3-methyl-benzylidene)-N′-[6-morpholin-4-yl-2-(2-pyridin-2-yl-ethoxy)-pyrimidin-4-yl]-hydrazine]
- IC50 [1]: 10 nM
- p35 promoter-driven luciferase expression (human IL-12 p35 promoter): suppressed
- p35 promoter-driven luciferase expression, comparison between compounds (human IL-12 p35 promoter; RAW264.7, stimulated by IFN-γ/LPS, Compound 2 compared with Compound 1): inhibited more effectively
- p40 promoter-driven luciferase expression (human IL-12 p40 promoter): suppressed
- effect of ICSBP over-expression on inhibition of p40 expression (human IL-12 p40 promoter; co-transfection of ICSBP with IL-12 promoter-Luc reporter): decreased the inhibition
- inhibition of expression in NFκB-element mutant p40 promoter construct (human IL-12 p40 promoter; site-directed mutant of the NFκB element, IFN-γ/LPS): reduced
